Experimental data as given in US20080027052A1, “METHODS FOR TREATING CYSTIC KIDNEY DISEASE” (priority 2006, published 2008).

Assays:
Type in all cases: in vivo
[1] = system: male Cy/+ rat; test: Kidney assessment (cyst volume, fibrosis, kidney weight, histology) in male Cy/+ rats; settings: for Cyst Vol / Cyst Vol as a % of BW / Total Kidney weight: at sacrifice; for Cyst Vol / Cyst Vol as a % of BW / Total Kidney weight / Fibrosis Score: n = 7-8, mean ± SD; for Histologic appearance of the cysts (FIG. 7): representative kidney sections, compared with control cystic animals; for Fibrosis Score: semi-quantitative score 0-4+, picrosirius red
From the text: The Cy rat is a Han:SPRD rat with a spontaneous genetic mutation called Cy. These animals develop progressive kidney disease due to the formation of multiple kidney tubule cysts that arise from both the proximal and later the distal tubule. The colony of rats has been maintained through successive breeding of two heterozygous Cy/+ rats. This is an autosomal dominant gene, such that at birth, ¼ of the animals are normal, ½ are heterozygotes (Cy/+) and ¼ are homozygotes (Cy/Cy). Homozygotes (Cy/Cy) of either sex are easily identified after approximately 10 days of age by abdominal palpation and elevations in blood urea nitrogen (BUN), a finding used to verify parental heterozygosity for PKD. Homozygous Cy/Cy rats develop massively enlarged kidneys and severe azotemia and die by 4 weeks of age. Heterozygote male animals develop progressive chronic kidney disease (CKD) with rise in blood urea nitrogen (BUN) by 10 weeks and death from uremia by 40-50 weeks. Heterozygote female animals develop progressive CKD with rise in BUN not detected until 20 weeks, with death at 80 weeks. […] Average food intake was 50 g/kg/day. At the time of sacrifice, rats were anesthetized with sodium pentobarbitol ([…], i.p.) and weighed. Blood was obtained for determination of serum creatinine, BUN, intact PTH, Ca and PO4. The left kidney was removed, weighed and frozen in liquid nitrogen for subsequent batch analyses. The right kidney was perfusion fixed with 4% paraformaldehyde in phosphate buffer (ph 7.4). The tissue was embedded in paraffin for histological studies. Cyst volume density was determined by point count stereology from randomly selected fields from hematoxylin and cosin (H&E) stained slides. Fibrosis was graded semi-quantitatively (scored 0-4+) from picrosirius red stained slides. The reviewer was blinded to the treatment group. Both measure were also standardized by body weight (for cyst volume) or kidney weight (for fibrosis). Four micron transverse tissue section of the kidney, including cortex and medulla, was stained with hematoxylin-cosin. Five fields/sections, from cortex through outer medulla, were evaluated for the degree of cystic change. Other sections were stained with picrosirius red for the evaluation of fibrosis. Fibrosis was scored (0-4+) for the relative amount of collagen within the interstitium from picrosirius red staining of collagen fibers. These assessments are the standard methods used to assess response to therapy in animal models of kidney disease (Gattone et al, Nature Medicine 9: 1323-6, 2003). Cy−/+ (cystic) male rats were assigned to one of four treatment groups (Table 5) and were phenotyped (by BUN) at 10 weeks and again at 20 weeks to ensure animals were cystic. […] Comparator groups included Compound A with calcium in the drinking water versus calcium alone. These comparator groups allow differentiation of the effects of changes in PTH and calcium from a direct action of the calcimimetic. FIG. 1 schematically represents the study design. At 10 weeks, animals were phenotyped. At 20 weeks, animals were started on the treatment arm. Half the animals were sacrificed at 34 weeks, half the animals were sacrificed 38 weeks. At each time point, samples from 8 animals were perfusion fixed with paraformaldehyde for CT scan, bone histology and aorta histology, samples from 8 animals were saline perfused for HCl extraction to determine calcium and phosphate content, and blood samples from 16 animals were collected for blood tests (PTH, calcium, phosphorus, BUN). Animals in the paraformaldehyde fixation group received tetracycline administration four and one week prior to sacrifice to label the bone for morphometric analyses. For the purpose of this application, only the laboratory and kidney end points will be presented. All data was analyzed by a statistician. The BUN was analyzed only at week 20 and end point (week 34 or 38) and was analyzed by ANCOVA adjusting for baseline (week 20) values. […]

[2] = system: male Cy/+ rat; test: Blood laboratory values in male Cy/+ rats treated from week 20; settings: for BUN / Calcium / Phosphorus / PTH: 38 week time point, treatment from week 20; for PTH: Compound A 0.05% w/w in chow, 3% Ca gluconate in water, mean ± SD
From the text: The Cy rat is a Han:SPRD rat with a spontaneous genetic mutation called Cy. These animals develop progressive kidney disease due to the formation of multiple kidney tubule cysts that arise from both the proximal and later the distal tubule. The colony of rats has been maintained through successive breeding of two heterozygous Cy/+ rats. This is an autosomal dominant gene, such that at birth, ¼ of the animals are normal, ½ are heterozygotes (Cy/+) and ¼ are homozygotes (Cy/Cy). Homozygotes (Cy/Cy) of either sex are easily identified after approximately 10 days of age by abdominal palpation and elevations in blood urea nitrogen (BUN), a finding used to verify parental heterozygosity for PKD. Homozygous Cy/Cy rats develop massively enlarged kidneys and severe azotemia and die by 4 weeks of age. Heterozygote male animals develop progressive chronic kidney disease (CKD) with rise in blood urea nitrogen (BUN) by 10 weeks and death from uremia by 40-50 weeks. Heterozygote female animals develop progressive CKD with rise in BUN not detected until 20 weeks, with death at 80 weeks. […] Average food intake was 50 g/kg/day. At the time of sacrifice, rats were anesthetized with sodium pentobarbitol ([…], i.p.) and weighed. Blood was obtained for determination of serum creatinine, BUN, intact PTH, Ca and PO4. The left kidney was removed, weighed and frozen in liquid nitrogen for subsequent batch analyses. The right kidney was perfusion fixed with 4% paraformaldehyde in phosphate buffer (ph 7.4). The tissue was embedded in paraffin for histological studies. Cyst volume density was determined by point count stereology from randomly selected fields from hematoxylin and cosin (H&E) stained slides. Fibrosis was graded semi-quantitatively (scored 0-4+) from picrosirius red stained slides. The reviewer was blinded to the treatment group. Both measure were also standardized by body weight (for cyst volume) or kidney weight (for fibrosis). Plasma urea and creatinine were determined using colorimetric assays (Urea-Sigma 640 creatinine kit). Intact PTH was determined by ELISA; Alpacoa, and Ca and PO4 were done with using colorimeteric analyses (Sigma). Cy−/+ (cystic) male rats were assigned to one of four treatment groups (Table 5) and were phenotyped (by BUN) at 10 weeks and again at 20 weeks to ensure animals were cystic. […] Comparator groups included Compound A with calcium in the drinking water versus calcium alone. These comparator groups allow differentiation of the effects of changes in PTH and calcium from a direct action of the calcimimetic. FIG. 1 schematically represents the study design. At 10 weeks, animals were phenotyped. At 20 weeks, animals were started on the treatment arm. Half the animals were sacrificed at 34 weeks, half the animals were sacrificed 38 weeks. At each time point, samples from 8 animals were perfusion fixed with paraformaldehyde for CT scan, bone histology and aorta histology, samples from 8 animals were saline perfused for HCl extraction to determine calcium and phosphate content, and blood samples from 16 animals were collected for blood tests (PTH, calcium, phosphorus, BUN). Animals in the paraformaldehyde fixation group received tetracycline administration four and one week prior to sacrifice to label the bone for morphometric analyses. For the purpose of this application, only the laboratory and kidney end points will be presented. All data was analyzed by a statistician. The BUN was analyzed only at week 20 and end point (week 34 or 38) and was analyzed by ANCOVA adjusting for baseline (week 20) values. The PTH, calcium, and phosphorus were analyzed at baseline (week 20), a mid point, and end point (week 34, 38). These values were compared by a mixed model adjusting for baseline values and time point. The kidney assessments were only measured at end point at the time of sacrifice, and therefore the measures were compared by ANCOVA and within group comparisons.

[3] = system: male Cy/+ rat; test: Kidney assessment (cyst volume, fibrosis, kidney weight, histology) in male Cy/+ rats; settings: ANOVA with post group comparisons, all p<0.01, HCl

| Compound | Cyst Vol [1] | Cyst Vol as a % of BW [1] | Total Kidney weight [1] | Histologic appearance of the cysts (FIG. 7) [1] | Fibrosis Score [1] | BUN [2] | Calcium [2] | Phosphorus [2] | PTH [2] | Change in BUN (week 20 to week 38) = Delta BUN [2] | Cyst volume and fibrosis compared to control (FIGS. 3-6) [3] | Cyst volume and fibrosis compared to control (FIGS. 3-6) ([3]; listed as compound A) |
| --- | --- | --- | --- | --- | --- | --- | --- | --- | --- | --- | --- | --- |
| O=C([O-])[C@H](O)[C@@H](O)[C@H](O)[C@H](O)CO.O=C([O-])[C@H](O)[C@@H](O)[C@H](O)[C@H](O)CO.[Ca+2] [Ca alone, reference compound] | 4.0 ± 0.9 cc | 0.9 ± 0.2% | 10.1 ± 1.4 g | cysts are a little smaller than control animals but there appears to be a similar number | 2.8 ± 0.2 | 69 ± 18 mg/dL | 11.2 ± 1.5 mg/dL | 4.3 ± 0.8 mg/dL | 39 ± 23 pg/mL | 27 ± 11 mg/dL |  |  |
| COc1cccc([C@@H](C)NCCCc2ccccc2Cl)c1.Cl [Compound A, N-(3-[2-chlorophenyl]-propyl)-R-α-methyl-3-methoxybenzylamine HCl] | 3.1 ± 0.55 cc | 0.6 ± 0.1% | 9.5 ± 1.4 g | noticeable decrease in cyst size and number | 2.6 ± 0.2 | 79 ± 21 mg/dL | 8.2 ± 1.5 mg/dL | 5.9 ± 1.4 mg/dL | 131 ± 156 pg/mL | 31 ± 15 mg/dL | reduces cyst volume and fibrosis | magnitude was significantly greater |
